Source: ChEMBL document CHEMBL1201862, “PubChem BioAssay data set” (2004)
Activity calls are given as the source filed them.

Key:
[1] = Luminescence Cell-Based Dose Confirmation HTS to Identify Activators of 5'UTR Stem-Loop Driven Alpha-Synuclein mRNA Translation in H4 Neuroglioblastoma Cells. [Related pubchem assays: 1829 (Project Summary), 1814 (Primary HTS)]; format: functional
[2] = Luminescence Cell-Based Dose Response HTS to Identify Activators of Luciferase Translation or Activity in H4 […] Cells. [Related pubchem assays: 1829 (Project Summary), 1814 (Primary HTS)]; format: functional
[3] = test system: H4; assay: Luminescence Cell-Based Dose Response HTS to Identify Activators of 5'UTR Stem-Loop Driven Prion Protein mRNA Translation in H4 Neuroglioblastoma Cells. [Related pubchem assays: 1829 (Project Summary), 1814 (Primary HTS)]; format: functional; conditions: Homo sapiens
[4] = growth suppression of PTEN-null colon cells, dose response, cell-based, HCT116 PTEN knockout (AID 1047); format: functional;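 also: HCT116 colon tumor cells with PTEN knocked out; cells exposed to compound for 60 hours before readout; potency for loss of cell viability measured by luminescence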
[5] = growth suppression of beta-catenin-knockout colon cells, dose response, cell-based, HCT116, human colon tumor (AID 1045); format: functional;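 also: HCT116 colon tumor cells with beta catenin knocked out; cells exposed to compound for 60 hours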
[6] = target: Peroxisome proliferator-activated receptor gamma/Nuclear receptor coactivator 1 (Homo sapiens, UniProt P37231); assay: (§1) TR-FRET dose response biochemical High Throughput Screening assay for agonists of the steroid receptor coactivator 1 (SRC-1) recruitment by the peroxisome proliferator-activated receptor gamma (PPAR gamma): non-selective agonists. [Related pubchem assays (depositor defined):AID1300, AID1808, AID504735, AID631]; format: protein assay
[7] = target: Peroxisome proliferator-activated receptor gamma/Nuclear receptor coactivator 3 (Homo sapiens, UniProt P37231); assay: as §1, with “3 (SRC-3)” for “1 (SRC-1)”, “assays: 1301 (Confirmation screen.), 1048 (Primary screen.)]” for “assays (depositor defined):AID1300, AID1808, AID504735, AID631]”; format: functional
[8] = target: Peroxisome proliferator-activated receptor gamma/Nuclear receptor coactivator 2 (Homo sapiens, UniProt P37231); assay: TR-FRET dose response biochemical High Throughput Screening assay for agonists of the steroid receptor coactivator 2 (SRC-2) recruitment by the peroxisome proliferator-activated receptor gamma (PPAR gamma): non-selective agonists. [Related pubchem assays: 1297, 1032 ]; format: functional
[9] = target: Nonstructural protein 1 (Influenza A virus, UniProt Q194T2); format: functional, Influenza A virus (A/California/07/2009(H1N1))
[10] = HEp-2 cell cytotoxicity, dose response, cytotoxicity control for RSV inhibitor project, HTS (AID 2410); format: functional; conditions: human respiratory syncytial virus
[11] = inhibitors of intracellular T. cruzi replication, confirmation, NIH3T3 host cells, beta-gal luminescence (AID 2044); format: functional, cell-based;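 also: intracellular parasites grown in NIH/3T3 mouse fibroblasts as host cells; luminescent beta-galactosidase reporter signal from transgenic T. cruzi replicating inside host cells; inhibitors lower the luminescence signal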
[12] = cytotoxicity toward NIH3T3 fibroblasts, dose response, counter-screen, cell-based, ATP luminescence, mouse fibroblasts (AID 2010); format: functional;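 also: cells exposed to compound for about 90 hours before reading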
[13] = Shn3 3'UTR reporter inhibitors, dose response, cell-based, Clone20 osteoblasts, firefly luciferase, cherry-picked (AID 624132); format: functional;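 also: firefly luciferase luminescence from reporter carrying the Shn3 3'UTR in osteoblasts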
[14] = HepG2 cell cytotoxicity, dose response, cytotoxicity control for Shn3 inhibitor project, CellTiter-Glo, cherry-picked (AID 624134); format: functional, cell-based
[15] = control 3'UTR Renilla luciferase suppression, dose response, counter-screen for Shn3 inhibitor project, cell-based, Clone20-Shn3RL, cherry-picked (AID 624133); format: functional
[16] = target: FAD-linked sulfhydryl oxidase ALR (Homo sapiens, UniProt P55789); assay: inhibitors of human ALR sulfhydryl oxidase, dose response, biochemical, H2O2 detection, luminescence, cherry-pick (AID 493248)
[17] = cells; format: functional, cell-based
[18] = cells; format: functional, cell-based; remark: listed apart in the source
[19] = target: T1, Protein skinhead-1 (Caenorhabditis elegans, UniProt P34707); format: functional
T1 sequence (P34707 whole entry): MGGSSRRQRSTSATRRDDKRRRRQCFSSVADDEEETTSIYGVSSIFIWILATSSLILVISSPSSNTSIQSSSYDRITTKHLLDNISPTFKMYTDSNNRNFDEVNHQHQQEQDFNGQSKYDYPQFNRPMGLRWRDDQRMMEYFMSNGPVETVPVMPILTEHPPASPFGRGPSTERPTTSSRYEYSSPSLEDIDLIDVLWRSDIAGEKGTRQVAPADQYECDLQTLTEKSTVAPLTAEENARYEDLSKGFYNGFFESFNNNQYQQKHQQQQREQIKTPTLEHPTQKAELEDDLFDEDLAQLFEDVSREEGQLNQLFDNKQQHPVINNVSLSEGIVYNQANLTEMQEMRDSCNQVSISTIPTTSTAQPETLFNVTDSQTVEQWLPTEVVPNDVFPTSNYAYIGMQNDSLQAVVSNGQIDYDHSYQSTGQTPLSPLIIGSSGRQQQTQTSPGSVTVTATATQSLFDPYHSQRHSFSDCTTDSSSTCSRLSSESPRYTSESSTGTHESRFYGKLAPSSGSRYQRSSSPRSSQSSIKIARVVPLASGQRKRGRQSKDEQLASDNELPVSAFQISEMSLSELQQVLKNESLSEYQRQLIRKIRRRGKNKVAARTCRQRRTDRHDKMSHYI

[20] = test system: INS1; assay: beta cell apoptosis inhibitors, cytokine rescue, dose response, luminescence, retest (AID 449756); format: functional, cell-based; conditions: Rattus norvegicus;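 also: cell death triggered by IL-1 beta plus TNF-alpha plus IFN-gamma mixture; protective hits raise ATP signal compared with cytokine alone wells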
[21] = test system: Streptococcus sp. 'group A'; assay: growth inhibition of control SK(-) GAS strain, dose response, counter-screen for streptokinase expression inhibitor project, luminescence, kanamycin, BacTiterGlo, confirmation (AID 1900); format: functional, organism-based
[22] = target: T2, Streptokinase A (Streptococcus pyogenes serotype M1, UniProt P10520); assay: S. pyogenes streptokinase expression inhibitors, potency, dose response, plasminogen activation absorbance, OD405 (AID 1914); format: functional, Streptococcus pyogenes M1 GAS;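 also: secreted streptokinase activity via plasminogen activation per viability signal from cell pellet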
T2 sequence (P10520 whole entry): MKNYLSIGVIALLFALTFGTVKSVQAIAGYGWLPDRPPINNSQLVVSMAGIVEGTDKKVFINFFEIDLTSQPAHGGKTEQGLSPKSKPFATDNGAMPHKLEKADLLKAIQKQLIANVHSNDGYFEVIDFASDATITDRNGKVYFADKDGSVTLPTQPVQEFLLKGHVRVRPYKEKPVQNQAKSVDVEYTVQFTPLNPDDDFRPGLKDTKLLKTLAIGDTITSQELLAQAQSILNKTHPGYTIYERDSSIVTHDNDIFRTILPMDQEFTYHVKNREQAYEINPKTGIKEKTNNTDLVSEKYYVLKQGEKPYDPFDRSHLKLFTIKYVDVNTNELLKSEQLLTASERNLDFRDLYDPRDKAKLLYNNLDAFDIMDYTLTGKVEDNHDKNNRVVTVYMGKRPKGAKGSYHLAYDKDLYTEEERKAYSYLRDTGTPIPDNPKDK

[23] = test system: Streptococcus; assay: Group A Streptococcus viability loss, dose response, counter-screen for streptokinase expression inhibitor project, luminescence, BacTiterGlo (AID 1915); format: functional, organism-based;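 also: potency for reduction of bacterial viability or growth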

## CC(C)c1ccc(NC(=O)[C@@H]2CCC(=O)N2C2OC(=O)c3ccccc32)cc1 (some centres not stated)
[1]
  EC50: 0.143 µM (active)
[2]
  EC50: 24.5 µM (active)
[3]
  EC50: 38.2 µM (active)

## COc1ccccc1N1CCN(c2cc(=O)n(Cc3ccc(F)cc3)c(=O)[nH]2)CC1
[4]
  EC50: 10.5 µM (active)
[5]
  EC50: 10.1 µM (active)

## CN1CCN(C(=O)CSc2cc(=O)n(C)c3ccccc23)CC1
[6]
  EC50: > 79.4 µM (inactive)
[7]
  EC50: > 79.4 µM (not active)
[8]
  EC50: > 79.4 µM (not active)

## CCOC(=O)c1sc(-c2ccc(OC)cc2)cc1NC(C)=O
[6]
  EC50: > 79.4 µM (inactive)
[7]
  EC50: > 79.4 µM (not active)
[8]
  EC50: 22 µM (not active)

## O=C(O)CN(CC(=O)O)CC(=O)O [NITRILOTRIACETIC ACID]
[9]
  IC50: 17.7 µM (active)

## COc1ccc(OC)c(-c2csc(NC(=O)Cc3ccccc3OC)n2)c1
[10]
  CC50: 25.3 µM (active)

## CCc1ccc(Nc2c([N+](=O)[O-])nn(-c3ccccc3)[n+]2[O-])cc1
[11]
  EC50: 0.461 µM (active)
[12]
  EC50: > 60 µM (not active)
[9]
  IC50: 81.8 µM (active)

## CSc1nc(Sc2ccccc2Cl)c2ccccc2n1
[6]
  EC50: > 79.4 µM (inactive)
[7]
  EC50: > 79.4 µM (not active)
[8]
  EC50: > 79.4 µM (not active)

## COc1ccc(-c2csc(NCCc3nc4cc(Cl)c(Cl)cc4n3CCCO)n2)cc1
[10]
  CC50: 19.6 µM (active)

## Oc1cc(Nc2cccnc2)cc2cccnc12
[9]
  IC50: 8.89 µM (active)
[13]
  AC50: 2.12 µM (active)
[14]
  AC50: 38.8 µM (active)
[15]
  AC50: 4.72 µM (active)

## OCCCn1c(C2CCCN2c2nc(-c3ccc(F)cc3)cs2)nc2cc(C(F)(F)F)ccc21 (configuration not stated)
[10]
  CC50: 16.8 µM (active)

## Cc1cc(C)c2c(-n3cccc3)c(C(=O)NNS(=O)(=O)c3ccc(Br)cc3)sc2n1
[10]
  CC50: 19 µM (active)
[16]
  AC50: 74.4 µM (active)

## Cc1ccc(C)c(CNS(=O)(=O)c2ccc3c(c2)C(C)(C)C(=O)N3C)c1
[17]
  EC50: > 350 µM (not active)
[18]
  EC50: > 350 µM (not active)

## C/C(=N\OC(=O)c1ccc(F)cc1)c1sc(-c2ccccc2)nc1C
[10]
  CC50: > 50 µM (active)

## CSc1sc(C(=O)N2CCCCC2)c(-c2cccs2)c1C#N
[17]
  EC50: > 350 µM (not active)
[18]
  EC50: > 350 µM (not active)

## FC(F)Oc1ccc(C2NC(c3ccccc3)=NO2)cc1 (configuration not stated)
[1]
  EC50: 0.115 µM (active)
[19]
  IC50: 80.6 µM (inactive)

## COc1ccccc1C(=O)Nc1ccc(S(=O)(=O)N2CCc3ccccc32)cc1
[10]
  CC50: 48.7 µM (active)

## O=C(Nc1ccc2c(c1)nc1n2CCN(Cc2ccccc2)C1)c1cccs1
[1]
  EC50: 17.2 µM (active)
[2]
  EC50: 13.6 µM (active)
[3]
  EC50: > 120 µM (not active)

## COCCn1c(C)cc(C(=O)CN2C(=O)NC3(CCCCCCC3)C2=O)c1C
[1]
  EC50: 0.94 µM (active)
[2]
  EC50: 0.283 µM (active)
[3]
  EC50: 8.28 µM (active)

## CN(C)c1cccc(O)c1
[19]
  IC50: > 100 µM (inactive)

## CC(OC(=O)c1ncc(Cl)c(Cl)c1Cl)C(=O)NC1(C#N)CCCCC1 (configuration not stated)
[17]
  EC50: > 350 µM (not active)
[18]
  EC50: > 350 µM (not active)

## CC(C(=O)Nc1ccccc1-c1ccccc1)N(C)Cc1nc(O)c2ccccc2n1 (configuration not stated)
[17]
  EC50: > 350 µM (not active)
[18]
  EC50: > 350 µM (not active)

## Cc1ccc(CNC(=O)CSc2c3c(nc4cc(Cl)ccc24)CCCC3)o1
[6]
  EC50: > 79.4 µM (inactive)
[7]
  EC50: > 79.4 µM (not active)
[8]
  EC50: > 79.4 µM (not active)

## Cc1cccc(/C=C/C(=O)c2ccc(NC3=NCCCS3)cc2)c1
[1]
  EC50: 23.3 µM (active)
[2]
  EC50: 9.88 µM (active)
[3]
  EC50: > 120 µM (not active)
[11]
  EC50: 2.23 µM (active)
[12]
  EC50: > 60 µM (not active)
[19]
  IC50: 19.9 µM (active)

## Clc1ccc(CSc2ccc(-c3ccccn3)nn2)cc1
[17]
  EC50: 12.5 µM (active)
[11]
  EC50: 1.84 µM (active)
[18]
  EC50: 43.7 µM (active)
[12]
  EC50: > 30 µM (not active)
[20]
  AC50: 5.06 µM (active)

## COc1cccc2[nH]c3c(N4CCc5ccccc5C4)ncnc3c12
[10]
  CC50: > 50 µM (active)

## O=S(=O)(c1ccccc1)N1CCC(c2nc(O)c3nnn(Cc4cccc(Cl)c4)c3n2)CC1
[10]
  CC50: 22.3 µM (active)

## COc1ccccc1C(=O)Nc1nnc(CCc2ccccc2)s1
[1]
  EC50: > 120 µM (not active)
[2]
  EC50: 8.71 µM (active)
[3]
  EC50: > 120 µM (not active)

## CCCOc1ccc(/C=N/Nc2ccccc2[N+](=O)[O-])c(OCCC)c1
[9]
  IC50: 7.73 µM (active)

## Cc1c(-c2csc(N)n2)c2ccccc2n1C
[19]
  IC50: > 100 µM (inactive)

## Cc1ccc(-c2nn(-c3ccccc3)cc2/C=N/NC(=O)CSc2nnc(C)n2-c2ccccc2)cc1
[1]
  EC50: 13.4 µM (active)
[2]
  EC50: 63.4 µM (active)
[21]
  EC50: 7.47 µM (active)
[3]
  EC50: 16.6 µM (active)
[22]
  EC50: 65.8 µM (active)
[23]
  EC50: 33.5 µM (active)

## Cc1ccc2[nH]c(SCC(=O)c3ccc(O)cc3O)nc2c1
[1]
  EC50: 9.48 µM (active)
[2]
  EC50: 16.5 µM (active)
[3]
  EC50: 52.9 µM (active)

## CCS(=O)(=O)c1ccc(-c2cccc(NC(=O)COc3ccccc3)c2)nn1
[17]
  EC50: > 350 µM (not active)
[18]
  EC50: > 350 µM (not active)

## CCOC(=O)c1sc(NC(=O)CN2CC(C)OC(C)C2)nc1C (configuration not stated)
[19]
  IC50: > 100 µM (inactive)

## CC(=O)c1cccc(NS(=O)(=O)c2ccc(-c3cc(C)no3)s2)c1
[17]
  EC50: > 350 µM (not active)
[18]
  EC50: > 350 µM (not active)

## C#Cc1ccc2c(c1)COc1c3ccccc3nn1-2
[19]
  IC50: > 100 µM (inactive)

## COc1ccc(N=Nc2cnc(C)nc2-c2ccccc2)cc1
[9]
  IC50: 43.8 µM (active)

## Cc1ccc2sc(NC(=O)c3cccc(N4C(=O)CCC4=O)c3)nc2c1C
[19]
  IC50: > 100 µM (inactive)

## CCn1c(=O)cc(SCC(=O)N(C)Cc2ccccc2)c2ccccc21
[6]
  EC50: > 79.4 µM (inactive)
[7]
  EC50: > 79.4 µM (not active)
[8]
  EC50: > 79.4 µM (not active)
